Measured values from PMC12326981, “Novel C5α-substituted carbapenems enhance Mycobacterium abscessus killing via selective target binding and reduced hydrolysis by BlaMab” (Antimicrobial Agents and Chemotherapy, 2025).
“And” between values parts separate entries of the source, which are not always exact repeats. Equal entries are not always repeated. Marks after values point to notes of the source that are not given here.

How the values were obtained:
[1] = molecular target: T1, PBP-lipo (Mycobacteroides abscessus, UniProt B1MDC3); experiment: Bocillin-FL competitive binding assay; details: Bocillin-FL competition, 1:10 molar ratio
T1 construct: made in house; host or cells: Escherichia coli BL21 (DE3)
T1 sequence (B1MDC3 entry or part of it): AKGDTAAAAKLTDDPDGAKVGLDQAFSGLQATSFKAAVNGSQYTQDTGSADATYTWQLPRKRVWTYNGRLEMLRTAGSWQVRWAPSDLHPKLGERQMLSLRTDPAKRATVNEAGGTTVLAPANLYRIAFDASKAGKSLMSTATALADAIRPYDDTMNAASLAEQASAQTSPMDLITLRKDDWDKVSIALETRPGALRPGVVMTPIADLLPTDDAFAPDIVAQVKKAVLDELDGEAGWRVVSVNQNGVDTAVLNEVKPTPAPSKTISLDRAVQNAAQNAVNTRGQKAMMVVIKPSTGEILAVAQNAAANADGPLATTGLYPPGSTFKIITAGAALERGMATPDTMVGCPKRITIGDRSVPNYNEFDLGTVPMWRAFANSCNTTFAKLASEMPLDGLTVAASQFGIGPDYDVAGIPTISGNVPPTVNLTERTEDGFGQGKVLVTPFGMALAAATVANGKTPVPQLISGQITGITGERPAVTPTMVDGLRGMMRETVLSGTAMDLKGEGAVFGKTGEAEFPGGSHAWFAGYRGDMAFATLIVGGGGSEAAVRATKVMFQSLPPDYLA
Method: The binding of JDB/NA-1-157 and JDB/NA-1-208 to PBP-lipo was assessed using a Bocillin-FL competitive assay as previously described ([25]). Briefly, purified PBP-lipo and the compounds (at a 1:10 molar ratio) were incubated in a buffer containing 10 mM sodium phosphate (pH 7.4) and 150 mM NaCl for 2 h at room temperature, followed by additional incubation with 1 µM Bocillin FL for 4 h at 37°C. Samples were boiled and analyzed by SDS-PAGE. The PBP-lipo:Bocilli complexes were detected via fluorescence at 488 nm using an Azure 300 gel imaging system. Band intensity was quantified using GelAnalyzer software.

[2] = Thermal stability in 7H9 broth at 30°C; details: for Degradation percentage / degradation after 24 h: 7H9 broth, 30°C; for Degradation percentage: 24 h; for degradation after 24 h: 50 mg/L and 10 mg/L (Fig. S2); for half-life: buffer
Method: The stability of the two compounds in 7H9 broth was assessed at 30°C at drug concentrations of 10, 50, and 100 mg/L, with each condition tested in triplicate. Absorbance at 240 nm was measured every 2 h over a 24 h period using a BioTek Synergy2 multimode reader, with data analyzed via Gen5 software to monitor degradation or changes in stability. To evaluate the impact of thermal instability, MIC tests were performed using Mab ATCC 19977. Compounds were tested at time points of 0 h (no incubation) and 6, 24, and 48 h of incubation at 30°C. Imipenem and meropenem, known to be thermally unstable β-lactams, were included as positive controls. The MIC results were recorded after 48 h of incubation. Detailed MIC testing protocols were identical to those described below.

[3] = test system: Mab strain ATCC 19977 and three clinical isolates (Mab122, Mab686, and UH01); experiment: Static concentration time-kill (SCTK) assay; type: cell-based, Mycobacterium abscessus
Method: SCTK studies were conducted over 5 days in Middlebrook 7H9 broth supplemented with 10% (vol/vol) OADC, 0.2% (vol/vol) glycerol, and 0.05% (vol/vol) Tween 80 in duplicate. The efficacy of JDB/NA-1-157 and JDB/NA-208 was evaluated using Mab strain ATCC 19977 and three clinical isolates (Mab122, Mab686, and UH01) at an initial inoculum of 10^5.5–10^6.3 CFU/mL. […] Bacterial killing was assessed across a wide range of concentrations for JDB/NA-1-157 and JDB/NA-1-208 individually (0.0625–64.0 mg/L).
For the combination study, the concentrations of JDB/NA-1-157 and JDB/NA-1-208 were selected based on MIC results and time-killing profiles of the single-drug study, while the concentrations of other β-lactams and BLIs were chosen based on clinically relevant levels, determined from the predicted average unbound steady-state concentrations (fCss,avg) in plasma at clinically relevant doses ([27]). The drug concentrations used were JDB/NA-1-157, 1 mg/L; JDB/NA-1-208, 8 mg/L; imipenem, 12 mg/L; ceftaroline, 8 mg/L; cefuroxime, 8 mg/L; amoxicillin, 2 mg/L; avibactam, 4 mg/L; durlobactam, 12 mg/L; amikacin, 12 mg/L; clarithromycin, 0.3 mg/L; and cefoxitin, 7 mg/L. The SOC regimen was included for comparison of efficacy. On day 3, the broth was replaced with fresh broth containing the corresponding drug concentrations. For viable cell counts, 100 µL of undiluted or appropriately diluted samples was subcultured on Middlebrook 7H10 agar plates supplemented with 1% (vol/vol) OADC, 0.2% glycerol, and 0.05% (vol/vol) Tween 80. All samples were washed twice with sterile 0.9% saline prior to serial dilution or plating.

[4] = molecular target: BlaMab (Mycobacteroides abscessus, UniProt B1MCI3); experiment: Mass spectrometric analysis of acyl-enzyme adducts; type: binding; set-up: key to Mass of protein after incubation (mass shift): (.) indicates no detectable binding; details: for adduct formation with BlaMab: mass spectrometry
BlaMab, sequence (B1MCI3 entry or part of it): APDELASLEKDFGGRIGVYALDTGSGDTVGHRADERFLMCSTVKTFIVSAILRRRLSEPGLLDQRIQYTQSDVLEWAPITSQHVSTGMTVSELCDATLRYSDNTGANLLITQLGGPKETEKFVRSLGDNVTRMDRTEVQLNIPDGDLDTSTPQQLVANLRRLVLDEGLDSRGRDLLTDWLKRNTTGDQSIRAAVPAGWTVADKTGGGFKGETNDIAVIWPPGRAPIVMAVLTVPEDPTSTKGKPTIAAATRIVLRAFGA
Method: (§1) Truncated sequences of BlaMab (Δ1–30 blaMab), LDT1–5, DDC, PBP B, PonA2, and PBP-lipo (Δ1–41) were synthesized by Celtek Biosciences (Franklin, TN) and cloned into the pET28(a)+ vector. Purification of LDTs and PBPs was carried out as previously described ([15], [16], [20]). Briefly, clones were transformed into Escherichia coli BL21 (DE3), and protein expression was induced with 0.25 mM isopropyl β-d-1-thiogalactopyranoside. Cell pellets were resuspended in buffer containing 50 mM Tris (pH 8.0), 400 mM sodium chloride, and 1 mM Tris(2-carboxyethyl)phosphine hydrochloride and lysed by sonication. After centrifugation, the supernatant was purified using a His Prep FF column and eluted with 500 mM imidazole.
(§2) The purified proteins were incubated at room temperature with JDB/NA-1-157 and JDB/NA-1-208 at a molar ratio of 1:10 for 2 h. A quadrupole time-of-flight mass spectrometer (Waters Synapt-G2-Si) with electrospray ionization and a Waters Acquity H-Class UPLC system were used to analyze the samples. The liquid chromatography conditions were as follows: a BEH C18 column (1.7 µm, 2.1 × 50 mm) and a mobile phase consisting of 0.1% formic acid in water and 0.1% formic acid in acetonitrile, with a gradient elution from 10% to 90% acetonitrile over 11 min at a flow rate of 0.5 mL/min. The MS settings were optimized with a capillary voltage of 3 kV, a sampling cone voltage of 35 V, and source and desolvation temperatures of 100°C and 500°C, respectively. Gas flow rates were 100 L/h for the cone and 800 L/h for desolvation. The mass accuracy was maintained at ±5 Da.

[5] = molecular target: LDT3 (Mycobacteroides abscessus, UniProt B1MHQ4); experiment: Mass spectrometric analysis of acyl-enzyme adducts; type: binding, Mycobacterium abscessus; details: LDT3 (44,795); 1:10 molar ratio, 2 h; accuracy ±5 Da
LDT3, sequence (B1MHQ4 entry or part of it): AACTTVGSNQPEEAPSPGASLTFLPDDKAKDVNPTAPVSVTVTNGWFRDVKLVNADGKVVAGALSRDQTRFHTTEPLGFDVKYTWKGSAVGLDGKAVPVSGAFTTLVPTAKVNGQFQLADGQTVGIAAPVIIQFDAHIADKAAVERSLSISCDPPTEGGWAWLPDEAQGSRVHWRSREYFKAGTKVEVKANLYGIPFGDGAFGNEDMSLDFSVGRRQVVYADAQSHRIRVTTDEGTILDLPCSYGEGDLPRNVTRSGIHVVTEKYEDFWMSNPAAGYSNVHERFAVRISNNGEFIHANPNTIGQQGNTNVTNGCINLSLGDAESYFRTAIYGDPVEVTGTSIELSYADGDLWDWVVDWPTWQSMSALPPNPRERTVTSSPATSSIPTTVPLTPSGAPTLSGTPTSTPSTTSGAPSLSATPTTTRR
Method: as §1, §2

[6] = molecular target: LDT4 (Mycobacteroides abscessus, UniProt B1MKW1); experiment: Mass spectrometric analysis of acyl-enzyme adducts; type: binding, Mycobacterium abscessus; details: LDT4 (32,567); 1:10 molar ratio, 2 h; accuracy ±5 Da
LDT4, sequence (B1MKW1 entry or part of it): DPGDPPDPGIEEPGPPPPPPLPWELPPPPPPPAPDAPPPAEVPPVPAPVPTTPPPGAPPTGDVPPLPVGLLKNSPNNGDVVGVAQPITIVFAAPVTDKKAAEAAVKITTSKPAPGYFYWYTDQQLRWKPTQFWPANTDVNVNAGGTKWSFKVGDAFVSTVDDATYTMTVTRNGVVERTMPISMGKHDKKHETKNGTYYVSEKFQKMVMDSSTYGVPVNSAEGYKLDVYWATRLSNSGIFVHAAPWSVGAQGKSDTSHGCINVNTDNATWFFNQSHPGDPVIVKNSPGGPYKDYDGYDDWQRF
Method: as §1, §2

| Compound | binding to PBP-lipo [1] | Degradation percentage ([2]; 10 mg/L) [%] | degradation after 24 h [2] | Degradation percentage ([2]; 50 mg/L) [%] | Degradation percentage ([2]; 100 mg/L) | half-life [2] [h] | bacterial killing in combination ([3]; 1 mg/L with BLIs (avibactam or durlobactam) or β-lactams (cefuroxime, ceftaroline, or amoxicillin), by day 3, ATCC 19977, Mab122, Mab686) | bacterial killing on addition of avibactam ([3]; ATCC 19977, JDB/NA-1-157 1 mg/L + avibactam 4 mg/L) | log10 CFU/mL reduction ([3]; single agent, 4 mg/L, over 5 days, ATCC 19977 and clinical isolates) | bacterial killing at high concentration ([3]; single agent, 16–64 mg/L, 5 days) | adduct formation with BlaMab [4] | Mass of protein after incubation (mass shift) [5] | Mass of protein after incubation (mass shift) [6] | effect of combining with avibactam on killing ([3]; 8 mg/L + avibactam 4 mg/L) | bacterial killing in combination ([3]; 8 mg/L with ceftaroline, cefuroxime, amoxicillin (with avibactam), or durlobactam) | log10 CFU killing ([3]; single agent, 64 mg/L) | Mass of protein after incubation (mass shift) ([4]; BlaMab (28,433), 1:10 molar ratio, 2 h, room temperature, accuracy ±5 Da) |
| --- | --- | --- | --- | --- | --- | --- | --- | --- | --- | --- | --- | --- | --- | --- | --- | --- | --- |
| C[C@@H](O)[C@H]1C(=O)N2C(C(=O)O)=C(S[C@@H]3CN[C@H](C(=O)N(C)C)C3)C[C@]12C [JDB/NA-1-157] | form acyl-enzyme complexes | 11.9 | 16% | 16.2 | 16% and 16.6% | 50 | near-complete eradication | up to 2.5 log10 CFU/mL | 1.5–2.0 log10 CFU/mL | near-complete eradication | formed a complex | 45,178 (+383) Da | 32,950 (+383) Da |  |  |  |  |
| CC[C@]12CC(S[C@@H]3CN[C@H](C(=O)N(C)C)C3)=C(C(=O)O)N1C(=O)[C@@H]2[C@@H](C)O [JDB/NA-1-208] | lacks binding | 0.6 | approximately 10% | 10.5 |  | 66 |  |  |  |  | did not form an adduct | 45,194 (+397) Da | 32,964 (+397) Da | no significant effect | near-complete eradication | ~ 3 log10 CFU | 28,434 (.)^b |
